In patent publication US20240383908A1, “SYNTHESIS AND APPLICATION OF PHOSPHATASE DEGRADER” (HINOVA PHARMACEUTICALS INC., priority 2021, published 2024):

What was measured:
Format in all cases: cell-based
NCI-H358 = assay: Inhibition of cell proliferation, NCI-H358 (CCK-8); conditions: Homo sapiens, NCI-H358 cells, read-out: Inhibition activity on the proliferation of different cell lines NCI-H358 (IC50)
Experimental: (§1) (1) MV-411 cells were cultured in the cell culture medium, and then well-growing cells were selected and inoculated in a 96-well plate at 80 μL/well, with 2×10^4 cells/well. The plate was incubated overnight in a 5% CO2 cell incubator at 37° C.
(§2) (2) 10 mM storage solution of each drug was prepared using dimethylsulfoxide (DMSO). The stock solution was diluted in a ratio of 1:3 with DMSO before use, and then the solution was serially diluted in a ratio of 1:3, to obtain 9 gradient concentrations. Each concentration was further diluted with the medium in a ratio of 1:200 (to ensure that the DMSO concentration in the culture system was 0.1%). Two wells were set for each concentration. 20 μL of each compound solution was added to the cell culture well (with a final concentration of 10 μM, 3.3 μM, 1.1 μM . . . ). The plate was gently shaken and mixed. Additionally, 3 negative control wells (only containing cells) and 3 blank control wells (only containing the medium) were included (6 wells were each added with 20 μL of DMSO diluted with the medium in a ratio of 1:200).
(§3) (1) After 5 days of cultivation, 10 μL of CCK-8 was added to each well, and then the plate was further cultured for 3 h at 37° C. in a 5% CO2 cell incubator.
(§4) (2) The absorbance (OD value) was measured at 450 nm with a multifunctional microplate reader. (3) The data were analyzed using the Dose-response-inhibition equation in GraphPad Prism8 software to obtain the IC50 value.
(§5) Using a similar method, the IC50 value (nM) for the inhibitory activity of the compound according to the present invention against different cell lines was obtained, and the results are shown in Table 3 (++++: IC50>5 μM; +++: 1 μM<IC50<5 μM; ++: IC50<1 μM).

SHP2 protein = molecular target: T1, SHP2 protein (Homo sapiens, UniProt Q06124); assay: Degradation activity on SHP2 protein in MIA Paca-2 cells (Western blot, DC50); parameters: endogenous in cells; host or cells: MIA Paca-2 cells; conditions: read-out: Degradation activity for differenct cell lines MIA Paca-2 (DC50)
T1 sequence (Q06124 1-593): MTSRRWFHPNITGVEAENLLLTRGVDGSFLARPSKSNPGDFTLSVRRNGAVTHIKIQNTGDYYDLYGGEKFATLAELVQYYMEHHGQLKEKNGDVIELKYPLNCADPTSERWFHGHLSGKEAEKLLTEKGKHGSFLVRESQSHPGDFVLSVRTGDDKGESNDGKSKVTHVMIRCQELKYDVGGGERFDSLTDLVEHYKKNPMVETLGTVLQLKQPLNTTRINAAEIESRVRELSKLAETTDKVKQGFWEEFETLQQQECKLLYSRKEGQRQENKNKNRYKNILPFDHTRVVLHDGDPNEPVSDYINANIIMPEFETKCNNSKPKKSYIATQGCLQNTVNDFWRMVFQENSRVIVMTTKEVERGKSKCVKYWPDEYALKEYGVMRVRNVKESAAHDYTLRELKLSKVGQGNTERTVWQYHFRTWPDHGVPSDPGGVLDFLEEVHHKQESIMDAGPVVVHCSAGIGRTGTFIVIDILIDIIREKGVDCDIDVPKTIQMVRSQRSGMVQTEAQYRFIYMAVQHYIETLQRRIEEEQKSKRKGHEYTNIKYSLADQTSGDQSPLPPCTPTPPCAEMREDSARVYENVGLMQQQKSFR
Method in brief: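 Cells were treated 24 h at 37 °C with compound (0.1–100 nM final, 0.1% DMSO). SHP2 was measured by Western blot with GAPDH as loading control, densitometry normalized to DMSO (100%). DC50, the concentration giving 50% degradation, came from a dose-response fit.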

KYSE 520 = assay: Inhibition of cell proliferation, KYSE 520 (CCK-8); conditions: Homo sapiens, KYSE 520 cells, read-out: Inhibition activity on the proliferation of different cell lines KYSE 520 (IC50)
Experimental: as §1, §2, §3, §4, §5

SMILES | IC50 (NCI-H358) [µM] | DC50 (SHP2 protein) [µM] | IC50 (KYSE 520) [µM]
CC1(N)CCN(c2cnc(Sc3cccc(NC(=O)CCCCCCCCN4CCN(c5ccc(C(=O)NCc6ccc7c(c6)CN(C6CCC(=O)NC6=O)C7=O)nn5)CC4)c3)cn2)CC1 (stereo not shown) [Compound 63] | < 1 | < 0.1 | 
CC1(N)CCN(c2cnc(Sc3cccc(NC(=O)CCCCCCCCN4C5CCC4CN(c4ccc(C(=O)NCc6ccc7c(c6)CN(C6CCC(=O)NC6=O)C7=O)nn4)C5)c3)cn2)CC1 (stereo not shown) [Compound 119] | < 1 | < 0.1 | 
Cc1ncsc1-c1ccc([C@H](C)NC(=O)[C@@H]2C[C@@H](O)CN2C(=O)[C@@H](NC(=O)CCCCCCCCN2CCN(C(=O)CCC(=O)Nc3cccc(Sc4ncc(N5CCC(C)(N)CC5)nc4N)c3Cl)CC2)C(C)(C)C)cc1 [Compound 999] | 1 to 5 | < 0.1 | 1 to 5
NC1(CO)CCN(c2cnc(Sc3cccc(NC(=O)CCCCCCN4CC5(CCN(c6ccc(C(=O)NCc7ccc8c(c7)CN(C7CCC(=O)NC7=O)C8=O)nn6)C5)C4)c3)cn2)CC1 (stereo not shown) [Compound 168] | 1 to 5 | < 0.1 | 
CCC1(N)CCN(c2cnc(Sc3cccc(NC(=O)CCCCCCN4CC5(CCN(c6ccc(C(=O)NCc7ccc8c(c7)CN(C7CCC(=O)NC7=O)C8=O)nn6)C5)C4)c3)cn2)CC1 (stereo not shown) [Compound 161] | 1 to 5 | < 0.1 | 
CC1(N)CCN(c2cnc(Sc3cccc(NC(=O)CCCCCCCCN4CCN(c5ccc(C(=O)NCc6ccc7c(c6)CN(C6CCC(=O)NC6=O)C7=O)nn5)CC4C(F)(F)F)c3)cn2)CC1 (stereo not shown) [Compound 174] | 1 to 5 | < 0.1 | 
